One data set addresses α-glucosidase (Saccharomyces cerevisiae, UniProt P53341). Put plainly: In vitro α-glucosidase inhibition assay (p-nitrophenyl glucopyranoside substrate). The settings on record: for inhibition at 500 µM: test compound 0.5mM, read-out: Percent Inhibition (0.5mM). The format is biochemical. The protocol: The reaction was initiated by the addition of 10 μL of 0.5mM substrate(p-nitrophenyl glucopyranoside, Sigma Inc.). […] All experiments were carried out in triplicates (mean ± SEM, n=3).

Chain of α-glucosidase (P53341 whole entry): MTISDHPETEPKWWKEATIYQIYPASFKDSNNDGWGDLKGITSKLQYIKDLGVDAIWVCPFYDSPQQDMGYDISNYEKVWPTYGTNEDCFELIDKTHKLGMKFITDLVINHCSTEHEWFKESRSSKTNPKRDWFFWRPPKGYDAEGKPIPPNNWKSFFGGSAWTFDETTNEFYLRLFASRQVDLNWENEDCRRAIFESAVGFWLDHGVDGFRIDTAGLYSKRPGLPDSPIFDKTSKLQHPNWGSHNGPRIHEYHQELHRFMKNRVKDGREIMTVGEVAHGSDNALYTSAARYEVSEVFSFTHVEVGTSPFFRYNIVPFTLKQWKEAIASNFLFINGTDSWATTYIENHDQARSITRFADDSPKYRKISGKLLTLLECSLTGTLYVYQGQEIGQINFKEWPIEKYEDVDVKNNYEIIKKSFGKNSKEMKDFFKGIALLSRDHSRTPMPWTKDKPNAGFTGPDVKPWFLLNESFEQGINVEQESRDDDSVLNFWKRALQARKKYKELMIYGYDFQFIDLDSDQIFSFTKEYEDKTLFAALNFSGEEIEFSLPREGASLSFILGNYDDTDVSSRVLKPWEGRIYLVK

The term inhibition denotes the relative decrease from the control value, in per cent. In general, melting point refers to the temperature of the solid-liquid transition. As to `CCOc1ccc(C=NNC(=O)Cc2ccc(O)c(O)c2)c(O)c1` [Compound 10, 2-(3,4-dihydroxyphenyl)-N'-(4-ethoxy-2-hydroxybenzylidene)acetohydrazide], the melting point is 164 °C. The inhibition at 500 µM at α-glucosidase worked out at 81.9%. With `Cc1ccc(C=NNC(=O)Cc2ccc(O)c(O)c2)cc1` [Compound 16, 2-(3,4-dihydroxyphenyl)-N'-(4-methylbenzylidene)acetohydrazide], the melting point is 201 °C. At α-glucosidase, the inhibition at 500 µM stood at 84.1%. `O=C(Cc1ccc(O)c(O)c1)NN=Cc1ccc(O)c(O)c1` [Compound 3, N'-(3,4-dihydroxybenzylidene)-2-(3,4-dihydroxyphenyl)acetohydrazide] showed a melting point of 212 °C. For the same compound, the inhibition at 500 µM on α-glucosidase was determined as 91.3%. As to `O=C(Cc1ccc(O)c(O)c1)NN=Cc1ccc(O)c(O)c1O` [Compound 5, 2-(3,4-dihydroxyphenyl)-N'-(2,3,4-trihydroxybenzylidene)acetohydrazide], the melting point turned out to be 212 °C. On α-glucosidase, the inhibition at 500 µM was 96.1%.

With `COc1ccccc1C=NNC(=O)Cc1ccc(O)c(O)c1` [Compound 12, 2-(3,4-dihydroxyphenyl)-N'-(2-methoxybenzylidene)acetohydrazide], the melting point lay within 190 to 193 °C. For the same compound, the inhibition at 500 µM on α-glucosidase was 96.7%. `Cc1ccc(C=NNC(=O)Cc2ccc(O)c(O)c2)cc1O` [Compound 11, 2-(3,4-dihydroxyphenyl)-N'-(3-hydroxy-4-methylbenzylidene)acetohydrazide] yielded a melting point of 210 °C. Moreover, at α-glucosidase, the inhibition at 500 µM turned out to be 77.5%. With `COc1ccc(C=NNC(=O)Cc2ccc(O)c(O)c2)cc1OC` [Compound 14, 2-(3,4-dihydroxyphenyl)-N'-(3,4-dimethoxybenzylidene)acetohydrazide], the melting point came to 210 °C. The inhibition at 500 µM at α-glucosidase was 92.2%. With `O=C(Cc1ccc(O)c(O)c1)NN=Cc1cccc2ccccc12` [Compound 17, 2-(3,4-dihydroxyphenyl)-N'-(naphthalen-1-ylmethylene)acetohydrazide], the melting point turned out to be 210 °C. For the same compound, the inhibition at 500 µM at α-glucosidase came to 72%. For `O=C(Cc1ccc(O)c(O)c1)NN=Cc1ccc([N+](=O)[O-])cc1` [Compound 23, 2-(3,4-dihydroxyphenyl)-N'-(4-nitrobenzylidene)acetohydrazide] the same measures were 201 °C and 80.9%. The corresponding values for `O=C(Cc1ccc(O)c(O)c1)NN=Cc1ccccc1O` [Compound 1, (3,4-dihydroxyphenyl)-N'-(2-hydroxybenzylidene)acetohydrazide] are 164 °C and 86.3%. As for `O=Cc1ccc(C=NNC(=O)Cc2ccc(O)c(O)c2)cc1` [Compound 26, 2-(3,4-dihydroxyphenyl)-N'-(4-formylbenzylidene)acetohydrazide], the melting point was 204 °C. Regarding `CSc1ccc(C=NNC(=O)Cc2ccc(O)c(O)c2)cc1` [Compound 28, 2-(3,4-dihydroxyphenyl)-N'-(4-(methylthio)benzylidene)acetohydrazide], the melting point was determined as 198 °C. Regarding `CCOc1cc(C=NNC(=O)Cc2ccc(O)c(O)c2)ccc1O` [Compound 9, 2-(3,4-dihydroxyphenyl)-N'-(3-ethoxy-4-hydroxybenzylidene)acetohydrazide], the melting point stood at 184 °C. In addition, the inhibition at 500 µM on α-glucosidase was 83.3%. The corresponding values for `COc1cccc(C=NNC(=O)Cc2ccc(O)c(O)c2)c1O` [Compound 7, 2-(3,4-dihydroxyphenyl)-N'-(2-hydroxy-3-methoxybenzylidene)acetohydrazide] are 204 °C and 91.7%.

Regarding `O=C(Cc1ccc(O)c(O)c1)NN=Cc1ccccc1Cl` [Compound 18, N'-(2-chlorobenzylidene)-2-(3,4-dihydroxyphenyl)acetohydrazide], the melting point came out at 164 °C. The inhibition at 500 µM at α-glucosidase came out at 85.3%. The compound `O=C(Cc1ccc(O)c(O)c1)NN=Cc1cccc(Cl)c1` [Compound 20, N'-(3-chlorobenzylidene)-2-(3,4-dihydroxyphenyl)acetohydrazide] gave a melting point of 196 °C. For the same compound, at α-glucosidase, the inhibition at 500 µM was determined as 84.4%.

Regarding `O=C(Cc1ccc(O)c(O)c1)NN=Cc1ccc(Cl)cc1` [Compound 19, N'-(4-chlorobenzylidene)-2-(3,4-dihydroxyphenyl)acetohydrazide], the melting point amounted to 198 °C. Besides, the inhibition at 500 µM on α-glucosidase was determined as 79.4%.

`COc1cc(C=NNC(=O)Cc2ccc(O)c(O)c2)ccc1O` [Compound 6, 2-(3,4-dihydroxyphenyl)-N'-(4-hydroxy-3-methoxybenzylidene)acetohydrazide] registered a melting point of 189 °C. Also, the inhibition at 500 µM at α-glucosidase was 86.4%. `O=C(Cc1ccc(O)c(O)c1)NN=Cc1ccc(O)cc1` [Compound 2, 2-(3,4-dihydroxyphenyl)-N'-(4-hydroxybenzylidene)acetohydrazide] came in with a melting point of 210 °C. The inhibition at 500 µM at α-glucosidase was determined as 90.4%. As to `O=C(Cc1ccc(O)c(O)c1)NN=Cc1cccc([N+](=O)[O-])c1` [Compound 25, 2-(3,4-dihydroxyphenyl)-N'-(3-nitrobenzylidene)acetohydrazide], the melting point is 206 °C. In addition, the inhibition at 500 µM on α-glucosidase amounted to 78.2%. For `O=C(Cc1ccc(O)c(O)c1)NN=Cc1ccccc1[N+](=O)[O-]` [Compound 24, 2-(3,4-dihydroxyphenyl)-N'-(2-nitrobenzylidene)acetohydrazide] the same measures were 204 °C and 82.7%. With `O=C(Cc1ccc(O)c(O)c1)NN=Cc1c(Cl)cccc1Cl` [Compound 22, N'-(2,6-dichlorobenzylidene)-2-(3,4-dihydroxyphenyl)acetohydrazide], the melting point was found to be 262 °C. Further, on α-glucosidase, the “α-glucosidase inhibitory activity (in words)” value is reported as “no inhibitory activity”. For `COc1ccc(C=NNC(=O)Cc2ccc(O)c(O)c2)c(O)c1` [Compound 8, 2-(3,4-dihydroxyphenyl)-N'-(2-hydroxy-4-methoxybenzylidene)acetohydrazide], the melting point turned out to be 206 °C. Moreover, on α-glucosidase, the inhibition at 500 µM came out at 91%. For `COc1ccc(C=NNC(=O)Cc2ccc(O)c(O)c2)cc1` [Compound 13, 2-(3,4-dihydroxyphenyl)-N'-(4-methoxybenzylidene)acetohydrazide] the same measures were 198 °C and 95.2%.

The compound `CN(C)c1ccc(C=NNC(=O)Cc2ccc(O)c(O)c2)cc1` [Compound 15, (3,4-dihydroxyphenyl)-N'-(4-(dimethylamino)benzylidene)acetohydrazide] yielded a melting point of 203 °C. At α-glucosidase, the inhibition at 500 µM was found to be 92.8%. `O=C(Cc1ccc(O)c(O)c1)NN=Cc1ccco1` [Compound 27, 2-(3,4-dihydroxyphenyl)-N'-(furan-2-ylmethylene)acetohydrazide]: the melting point came to 156 °C.

Regarding `O=C(Cc1ccc(O)c(O)c1)NN=Cc1ccc(O)cc1O` [Compound 4, N'-(2,4-dihydroxybenzylidene)-2-(3,4-dihydroxyphenyl)acetohydrazide], the melting point was found to be 198 °C. In addition, at α-glucosidase, the inhibition at 500 µM was determined as 95.7%.
